# Reference: US9796711B2, “Substituted pyrazolo[3,4-b]pyridin-6-carboxylic acids and method of use” (AbbVie S.àr.l., priority 2015, dated 2017)
# Legend:
# ΔF508-CFTR [1] = molecular target: T1, ΔF508-CFTR (Homo sapiens, UniProt P13569, DEL508-508); test: CFTR cell surface levels using HRP-tagged ΔF508-CFTR expressing CFBE cells, in the presence of a co-corrector; format: cell-based
# T1 construct: host or cells: CFBE41o-, doxycycline-inducible
# Outline: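 Cells were seeded with 0.5 μg/mL doxycycline and held 68 h at 37 °C. Test compounds plus 3 μM co-corrector (final 0.1% DMSO) were then added for 20 h at 33 °C. Washed cells received HRP substrate, and luminescence was normalized between DMSO and 3 μM co-corrector controls.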
# ΔF508-CFTR [2] = molecular target: T1, ΔF508-CFTR; test: CFTR cell surface levels using HRP-tagged ΔF508-CFTR expressing CFBE cells, intrinsic corrector capacity; format: cell-based
# Outline: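 Here the cells express ΔF508-CFTR with horseradish peroxidase inserted in extracellular loop 4, so only rescued channel at the surface gives luminescent signal. Compounds act on their own, 20 h at the reduced temperature of 33 °C; values are percent activity relative to DMSO and a 3 μM corrector.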
# [3] = HRP-tagged ΔF508-CFTR expressing CFBE cells, in the presence of 3 μM co-corrector
# [4] = HRP-tagged ΔF508-CFTR expressing CFBE cells, in the presence of 3 μM co-corrector, read-out: EC50
# [5] = HRP-tagged ΔF508-CFTR expressing CFBE cells, intrinsic corrector capacity (no co-corrector), 33° C., 20 hours
# [6] = HRP-tagged ΔF508-CFTR expressing CFBE cells, intrinsic corrector capacity (no co-corrector), 33° C., 20 hours, read-out: EC50
# [7] = HRP-tagged ΔF508-CFTR CFBE41o- cells, compounds alone (intrinsic corrector capacity), 20 hours at 33° C., positive control 3 μM corrector
# [8] = HRP-tagged ΔF508-CFTR CFBE41o- cells, compounds alone (intrinsic corrector capacity), 20 hours at 33° C., read-out: EC50
# [9] = HRP-tagged ΔF508-CFTR CFBE cells, compound alone (intrinsic corrector capacity), 20 hours at 33° C.
# [10] = HRP-tagged ΔF508-CFTR CFBE cells, compound alone (intrinsic corrector capacity), 20 hours at 33° C., read-out: EC50
# T1 sequence (P13569 with tags, fused parts or gaps DEL508-508): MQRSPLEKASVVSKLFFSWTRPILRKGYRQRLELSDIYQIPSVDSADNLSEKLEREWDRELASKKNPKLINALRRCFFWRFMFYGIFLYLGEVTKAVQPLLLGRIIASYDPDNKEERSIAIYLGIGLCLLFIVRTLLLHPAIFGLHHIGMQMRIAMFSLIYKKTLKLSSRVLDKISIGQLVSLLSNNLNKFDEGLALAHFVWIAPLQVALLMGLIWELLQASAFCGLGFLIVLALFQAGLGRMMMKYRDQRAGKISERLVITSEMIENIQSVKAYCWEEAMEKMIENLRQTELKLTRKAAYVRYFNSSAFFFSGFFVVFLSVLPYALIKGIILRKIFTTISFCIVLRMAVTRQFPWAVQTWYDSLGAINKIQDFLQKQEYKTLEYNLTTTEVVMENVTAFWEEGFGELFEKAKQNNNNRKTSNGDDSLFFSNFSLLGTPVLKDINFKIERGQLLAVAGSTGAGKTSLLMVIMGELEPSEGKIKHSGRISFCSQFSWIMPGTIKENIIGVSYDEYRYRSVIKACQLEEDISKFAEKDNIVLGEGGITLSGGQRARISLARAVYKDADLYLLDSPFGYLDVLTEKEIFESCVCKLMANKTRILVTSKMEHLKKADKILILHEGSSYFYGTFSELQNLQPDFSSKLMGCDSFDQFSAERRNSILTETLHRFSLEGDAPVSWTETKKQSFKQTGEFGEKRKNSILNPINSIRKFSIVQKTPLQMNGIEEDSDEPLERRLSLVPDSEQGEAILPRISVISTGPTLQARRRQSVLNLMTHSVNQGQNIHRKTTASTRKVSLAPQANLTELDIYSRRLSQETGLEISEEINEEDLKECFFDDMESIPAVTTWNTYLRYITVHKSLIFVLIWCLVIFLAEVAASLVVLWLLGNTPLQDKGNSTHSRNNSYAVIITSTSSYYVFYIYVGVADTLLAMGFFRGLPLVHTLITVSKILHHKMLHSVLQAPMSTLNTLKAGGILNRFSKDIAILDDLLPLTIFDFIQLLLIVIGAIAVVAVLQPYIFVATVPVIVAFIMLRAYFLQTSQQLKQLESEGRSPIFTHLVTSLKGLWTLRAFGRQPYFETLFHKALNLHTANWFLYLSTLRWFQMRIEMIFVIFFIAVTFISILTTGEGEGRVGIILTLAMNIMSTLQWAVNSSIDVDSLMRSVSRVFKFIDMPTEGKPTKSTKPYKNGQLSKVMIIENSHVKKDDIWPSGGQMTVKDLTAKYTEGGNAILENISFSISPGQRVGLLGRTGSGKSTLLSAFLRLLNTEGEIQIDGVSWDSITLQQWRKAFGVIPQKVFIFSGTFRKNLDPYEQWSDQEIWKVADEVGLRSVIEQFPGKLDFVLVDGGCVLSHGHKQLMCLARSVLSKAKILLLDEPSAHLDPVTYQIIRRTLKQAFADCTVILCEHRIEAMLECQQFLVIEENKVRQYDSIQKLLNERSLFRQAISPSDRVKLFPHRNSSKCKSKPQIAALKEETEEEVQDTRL
Compound,% Activation (ΔF508-CFTR [1]; [3]) [%],EC50 (ΔF508-CFTR [1]; [4]) [nM],% Activation (ΔF508-CFTR [2]; [5]) [%],EC50 (ΔF508-CFTR [2]; [6]) [nM],% Activation (ΔF508-CFTR [2]; [7]) [%],EC50 (ΔF508-CFTR [2]; [8]) [nM],% Activation (ΔF508-CFTR [2]; [9]) [%],EC50 (ΔF508-CFTR [2]; [10]) [nM],EC50 (ΔF508-CFTR [1]) [nM],EC50 (ΔF508-CFTR [2]) [nM]
"CCN1CCCN(c2cc(C(=O)O)nc3c2c(C(C)C)nn3-c2ccc(F)cc2)CC1 [compound 797, 4-(4-ethyl-1,4-diazepan-1-yl)-1-(4-fluorophenyl)-3-(propan-2-yl)-1H-pyrazolo[3,4-b]pyridine-6-carboxylic acid]",178.6,1670,31.52,5000,–,–,–,–,–,–
"CC(C)c1nn(-c2ccc(F)cc2)c2nc(C(=O)O)cc(N3CCC4(CCCO4)CC3)c12 [compound 401, 1-(4-fluorophenyl)-4-(1-oxa-8-azaspiro[4.5]decan-8-yl)-3-(propan-2-yl)-1H-pyrazolo[3,4-b]pyridine-6-carboxylic acid]",306.07,653,136.97,1100,–,–,–,–,–,–
"CN(CCCN(C)C1CCCCC1)c1cc(C(=O)O)nc2c1c(C1CCC1)nn2-c1ccccc1 [compound 690, 3-cyclobutyl-4-[{3-[cyclohexyl(methyl)amino]propyl}(methyl)amino]-1-phenyl-1H-pyrazolo[3,4-b]pyridine-6-carboxylic acid]",318.25,2760,136.1,1670,–,–,–,–,–,–
"O=C(O)c1cc(OC2CCCCCCC2)c2c(C3CCC3)nn(-c3ccccc3)c2n1 [compound 649, 3-cyclobutyl-4-(cyclooctyloxy)-1-phenyl-1H-pyrazolo[3,4-b]pyridine-6-carboxylic acid]",314.65,225,107.6,432,–,–,–,–,–,–
"Cc1nn(-c2ccccc2)c2nc(C(=O)O)cc(N3CC4(CCCCO4)C3)c12 [compound 312, 3-methyl-4-(5-oxa-2-azaspiro[3.5]nonan-2-yl)-1-phenyl-1H-pyrazolo[3,4-b]pyridine-6-carboxylic acid]",185,2320,–,–,61.325,2510,–,–,–,–
"COC1CCN(C2CCN(c3cc(C(=O)O)nc4c3c(OC(C)C)nn4-c3ccc(F)cc3)CC2)CC1 [compound 926, 1-(4-fluorophenyl)-4-(4-methoxy[1,4′-bipiperidin]-1′-yl)-3-[(propan-2-yl)oxy]-1H-pyrazolo[3,4-b]pyridine-6-carboxylic acid]",486.6,340,–,–,–,–,240.2,521,–,–
"CC(C)c1nn(-c2cccc(N(C)C)c2)c2nc(C(=O)O)cc(N3CCC(C(F)(F)F)C3)c12 (centres unmarked) [compound 270, 1-[3-(dimethylamino)phenyl]-3-(propan-2-yl)-4-[3-(trifluoromethyl)pyrrolidin-1-yl]-1H-pyrazolo[3,4-b]pyridine-6-carboxylic acid]",430.4,529,–,–,236.02,698,–,–,–,–
"NC(=O)c1nn(-c2ccccc2)c2nc(C(=O)O)cc(-c3ccc(N4CCOCC4)cc3)c12 [compound 64, 3-carbamoyl-4-[4-(morpholin-4-yl)phenyl]-1-phenyl-1H-pyrazolo[3,4-b]pyridine-6-carboxylic acid]",113.3,> 10000,–,–,3.754,> 10000,–,–,–,–
"Cc1nn(-c2ccccc2)c2nc(C(=O)O)cc(N3CCCC4(CC4)C3)c12 [compound 310, 4-(5-azaspiro[2.5]octan-5-yl)-3-methyl-1-phenyl-1H-pyrazolo[3,4-b]pyridine-6-carboxylic acid]",199.65,1610,–,–,88.73,1890,–,–,–,–
"CN1CCN(C2CCN(c3cc(C(=O)O)nc4c3c(C3CCC3)nn4-c3ccccc3)CC2)CC1 [compound 757, 3-cyclobutyl-4-[4-(4-methylpiperazin-1-yl)piperidin-1-yl]-1-phenyl-1H-pyrazolo[3,4-b]pyridine-6-carboxylic acid]",489.6,402,208.45,319,–,–,–,–,–,–
"COC(=O)N1CCC(n2nc(C(C)C)c3c(-c4ccc(N5CCOCC5)cc4)cc(C(=O)O)nc32)C1 (centres unmarked) [compound 142, 1-[1-(methoxycarbonyl)pyrrolidin-3-yl]-4-[4-(morpholin-4-yl)phenyl]-3-(propan-2-yl)-1H-pyrazolo[3,4-b]pyridine-6-carboxylic acid]",135.2,5550,–,–,17.605,> 10000,–,–,–,–
"CCOCC1(F)CCCN(c2cc(C(=O)O)nc3c2c(C2CCC2)nn3-c2ccccc2)C1 (centres unmarked) [compound 460, 3-cyclobutyl-4-[3-(ethoxymethyl)-3-fluoropiperidin-1-yl]-1-phenyl-1H-pyrazolo[3,4-b]pyridine-6-carboxylic acid]",322.2,328,138.15,642,–,–,–,–,–,–
"O=C(O)c1cc(N2CCC(N3CCCC3)CC2)c2c(C3CCC3)nn(-c3ccccc3)c2n1 [compound 443, 3-cyclobutyl-1-phenyl-4-[4-(pyrrolidin-1-yl)piperidin-1-yl]-1H-pyrazolo[3,4-b]pyridine-6-carboxylic acid]",317.25,1470,146.9,2300,–,–,–,–,–,–
"O=C(O)c1cc(OCC2CCOCC2)c2c(C3CCC3)nn(-c3ccccc3)c2n1 [compound 417, 3-cyclobutyl-4-[(oxan-4-yl)methoxy]-1-phenyl-1H-pyrazolo[3,4-b]pyridine-6-carboxylic acid]",322,318,134.8,546,–,–,–,–,–,–
"Cc1cccc(-n2nc(C(C)C)c3c(-c4ccc(N5CCOCC5)cc4)cc(C(=O)O)nc32)c1 [compound 20, 1-(3-methylphenyl)-4-[4-(morpholin-4-yl)phenyl]-3-(propan-2-yl)-1H-pyrazolo[3,4-b]pyridine-6-carboxylic acid]",450.9,371,–,–,199.98,522,–,–,–,–
"CC(C)c1nn(-c2ccc(F)cc2)c2nc(C(=O)O)cc(N3CCC(N(C)C(C)C)CC3)c12 [compound 799, 1-(4-fluorophenyl)-4-{4-[methyl(propan-2-yl)amino]piperidin-1-yl}-3-(propan-2-yl)-1H-pyrazolo[3,4-b]pyridine-6-carboxylic acid]",306.6,1670,114,1670,–,–,–,–,–,–
"CN1CCC2(CC1)CCN(c1cc(C(=O)O)nc3c1c(C1CCC1)nn3-c1ccc(F)cc1)CC2 [compound 928, 3-cyclobutyl-1-(4-fluorophenyl)-4-(9-methyl-3,9-diazaspiro[5.5]undecan-3-yl)-1H-pyrazolo[3,4-b]pyridine-6-carboxylic acid]",362.2,2410,–,–,–,–,284.7,4030,–,–
"COCCC1CCN(c2cc(C(=O)O)nc3c2c(C2CCC2)nn3-c2ccccc2)CC1 [compound 403, 3-cyclobutyl-4-[4-(2-methoxyethyl)piperidin-1-yl]-1-phenyl-1H-pyrazolo[3,4-b]pyridine-6-carboxylic acid]",507.25,311,293.4,408,–,–,–,–,–,–
"O=CN1CCN(CC2CCN(c3cc(C(=O)O)nc4c3c(C3CCC3)nn4-c3ccccc3)CC2)CC1 [compound 843, 3-cyclobutyl-4-{4-[(4-formylpiperazin-1-yl)methyl]piperidin-1-yl}-1-phenyl-1H-pyrazolo[3,4-b]pyridine-6-carboxylic acid]",499.3,207,264.2,366,–,–,–,–,–,–
"COCCN1CCN(c2cc(C(=O)O)nc3c2c(C2CCC2)nn3-c2ccccc2)CC1 [compound 571, 3-cyclobutyl-4-[4-(2-methoxyethyl)piperazin-1-yl]-1-phenyl-1H-pyrazolo[3,4-b]pyridine-6-carboxylic acid]",334.05,–,189.6,–,–,–,–,–,328,812
"Cc1nn(-c2ccccc2)c2nc(C(=O)O)cc(N3CC4(CCOC4)C3)c12 [compound 306, 3-methyl-4-(6-oxa-2-azaspiro[3.4]octan-2-yl)-1-phenyl-1H-pyrazolo[3,4-b]pyridine-6-carboxylic acid]",147.8,2510,–,–,22.69,7500,–,–,–,–
"CC(C)c1nn(-c2ccc(F)cc2)c2nc(C(=O)O)cc(N3CCN(C(C)(C)C)CC3)c12 [compound 788, 4-(4-tert-butylpiperazin-1-yl)-1-(4-fluorophenyl)-3-(propan-2-yl)-1H-pyrazolo[3,4-b]pyridine-6-carboxylic acid]",329.4,1670,115.7,1670,–,–,–,–,–,–
"CN1C(=O)CO[C@H]2CN(c3cc(C(=O)O)nc4c3c(C3CCC3)nn4-c3ccccc3)C[C@@H]21 [compound 516, 3-cyclobutyl-4-[(4aS,7aS)-4-methyl-3-oxohexahydropyrrolo[3,4-b][1,4]oxazin-6 (2H)-yl]-1-phenyl-1H-pyrazolo[3,4-b]pyridine-6-carboxylic acid]",275.5,723,123.4,1110,–,–,–,–,–,–
